Data on one compound can be found in article PMC8703611, “Cyclic Peptides from the Soft Coral-Derived Fungus Aspergillus sclerotiorum SCSIO 41031” (Marine Drugs, 2021).

A word on the IC50: it is the point on the concentration scale where inhibition reaches its midpoint. A lower IC50 goes with higher potency.

Structures are written as SMILES.

The target of one data set is acetylcholinesterase (Homo sapiens, UniProt P22303). The data set is described as follows: AChE inhibition, modified Ellman's method. It is filed as biochemical. As for the experimental part: The AChE inhibition activity was measured based on the modified Ellman’s method. Tacrine was used as positive drug. The inhibition rates of AChE were calculated using Origin 8.0 software.
Chain of acetylcholinesterase (P22303 32-614): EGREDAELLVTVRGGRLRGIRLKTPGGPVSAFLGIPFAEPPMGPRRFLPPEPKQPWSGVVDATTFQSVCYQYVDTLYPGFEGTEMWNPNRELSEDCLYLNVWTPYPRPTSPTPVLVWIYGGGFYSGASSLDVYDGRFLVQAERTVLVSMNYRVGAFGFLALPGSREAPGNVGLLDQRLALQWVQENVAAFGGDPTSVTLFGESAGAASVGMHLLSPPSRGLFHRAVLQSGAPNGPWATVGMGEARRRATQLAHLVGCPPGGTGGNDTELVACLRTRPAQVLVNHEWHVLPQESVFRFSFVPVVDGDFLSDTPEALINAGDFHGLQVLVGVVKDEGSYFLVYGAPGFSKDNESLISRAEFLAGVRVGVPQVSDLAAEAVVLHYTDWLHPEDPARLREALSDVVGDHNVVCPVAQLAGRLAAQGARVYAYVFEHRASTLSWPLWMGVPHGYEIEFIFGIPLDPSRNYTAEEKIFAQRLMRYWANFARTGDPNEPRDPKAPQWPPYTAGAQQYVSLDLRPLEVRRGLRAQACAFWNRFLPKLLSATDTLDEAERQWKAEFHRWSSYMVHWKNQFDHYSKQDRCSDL
In general terms: Ellman's reagent forms a yellow product with free thiols.

A short description of data set [1]: Cytotoxicity against HONE1-EBV, CCK-8 method. The format is cell-based, human. To be noted: CCK-8, OD at 450 nm, 72 h, average values of three parallel experiments. As for the experimental part:
(§1) The THP-1, HONE1, and HONE1-EBV cell lines were obtained from Sun Yat-sen University Cancer Center. The cytotoxic activity was determined by the CCK-8 (Dojindo) method. Briefly, THP-1, HONE1, and HONE1-EBV cells were cultured in DMEM media supplemented with 10% […] (FBS), respectively. The cells were seeded at a density of 400 to 800 cells/well in 384-well plates and then incubated with the compounds in a gradient concentration (50.0, 10.0, 2.0, 0.4, and 0.08 μM) or with a solvent control for 72 h, followed by the addition of CCK-8 reagent. The OD value of each well was measured at 450 nm using a SpectraMax M5 Microplate Reader (Molecular Devices). Sorafenib functioned as the positive control. Dose–response curves were plotted to determine IC50 based upon the average values of three parallel experiments using Prism 5.0.

Data set [2] in a line: Cytotoxicity against HONE1, CCK-8 method. To be noted: CCK-8, OD at 450 nm, 72 h, average values of three parallel experiments. The format is cell-based, human. On the procedure: as §1

Regarding `CCCCCCCC[C@H](C)[C@@H]1CC(=O)NCC(=O)N[C@@H](C(C)C)C(=O)N[C@H](CC(C)C)C(=O)N[C@@H](C)C(=O)N[C@@H](C(C)C)C(=O)O1` [Compound 4, Scopularide I], the figures for the IC50 (on acetylcholinesterase; in data set [1]; in data set [2]) were 15.6 µM, 10.1 µM and 13 µM, respectively.
